Data from patent publication US20260365641A1, “Aromatic Acetylene Derivative, Preparation Method Therefor, And Use Thereof” (Zhejiang Hisun Pharmaceutical Co., Ltd., priority 2022, published 2026).
In brackets after ≈: the same amount, converted by molar mass.

Each molecule was assayed on E. coli ATCC 25922 (assay: Antibacterial activity, minimum inhibitory concentration (MIC) in vitro, broth dilution). Conditions: Escherichia coli, ATCC25922, 5×10^5 cfu/mL, 35 °C, 18-24 hours.
Format: cell-based
Protocol: (§1) The minimum inhibitory concentration (MIC) in vitro was determined according to CLSI's guidelines, and a minimal broth dilution method was used.
(§2) The test process was briefly described as follows: the tested compound was dissolved in DMSO to prepare a storage solution of […], and then prepared into 11 two-fold-diluted 100× high-concentration working liquids (a final concentration of the system was 64 μg/mL to 0.06 μg/mL) by DMSO. Stains (K. pneumoniae ATCC13883, K. pneumoniae ATCC51504 and E. coli ATCC 25922) frozen at −80 °C with glycerin were inoculated to a solid agar culture medium, placed into an incubator for culturing for 18-24 hours at 35 °C to finish the preparation work of the strains. A proper amount of solid plate culture was collected, re-suspended in normal saline, and uniformly mixed. The turbidity of the bacterial suspension was adjusted to a proper turbidity by a turbidity meter, containing about 1×10^8 cfu/mL of bacteria. Then, the turbidity-regulated bacterial suspension was diluted with a test culture medium (type: CAMHIIB, purchased from BD company) to a bacterial concentration of 5×10^5 cfu/mL, thus finishing the preparation of an inoculation solution. 198 μL of the inoculation solution was inoculated into a 96-well plate, and added with 2 μL 100× high concentration working liquid of the compound, then the 96-well plate was placed at 35 °C for culturing for 18-24 hours.

Row | SMILES | MIC
1 | C[C@H](O)c1nccn1Cc1cc(-c2ccc(C#CC3=CCN(C(=O)C4COCCN4)CC3)cc2)on1 (stereo partly drawn) [Example 42, (4-((4-(3-((2-((S)-1-hydroxyethyl)-1H-imidazol-1-yl)methyl)isoxazol-5-yl)phenyl)ethynyl)-3,6-dihydropyridin-1(2H)-yl)(morpholin-3-yl)methanone] | 4 µg/mL (≈ 8.2 µM)
2 | C[C@H](O)c1nccn1Cc1cc(-c2ccc(C#CC3=CCN(C(=O)Cn4cncn4)CC3)cc2)on1 [Example 37, (S)-1-(4-((4-(3-((2-(1-hydroxyethyl)-1H-imidazol-1-yl)methyl)isoxazol-5-yl)phenyl)ethynyl)-3,6-dihydropyridin-1(2H)-yl)-2-(1H-1,2,4-triazol-1-yl)ethan-1-one] | 2 µg/mL (≈ 4.14 µM)

The molecules below were run on K. pneumoniae ATCC51504 in the same assay as above. Conditions: Klebsiella pneumoniae, 5×10^5 cfu/mL, 35 °C, 18-24 hours.
Format: cell-based
Protocol: as §1, §2

Row | SMILES | MIC
3 | C[C@H](O)c1nccn1Cc1cc(-c2ccc(C#CC3=CCN(C(=O)C4COCCN4)CC3)cc2)on1 (stereo partly drawn) [Example 42, (4-((4-(3-((2-((S)-1-hydroxyethyl)-1H-imidazol-1-yl)methyl)isoxazol-5-yl)phenyl)ethynyl)-3,6-dihydropyridin-1(2H)-yl)(morpholin-3-yl)methanone] | 2 µg/mL (≈ 4.1 µM)
4 | C[C@H](O)c1nccn1Cc1cc(-c2ccc(C#CC3=CCN(C(=O)Cn4cncn4)CC3)cc2)on1 [Example 37, (S)-1-(4-((4-(3-((2-(1-hydroxyethyl)-1H-imidazol-1-yl)methyl)isoxazol-5-yl)phenyl)ethynyl)-3,6-dihydropyridin-1(2H)-yl)-2-(1H-1,2,4-triazol-1-yl)ethan-1-one] | 2 µg/mL (≈ 4.14 µM)

What follows are molecules tested against T1, recombinant Pseudomonas aeruginosa LpxC (Pseudomonas aeruginosa, UniProt P47205) (assay: Inhibition of enzymatic activity of recombinant Pseudomonas aeruginosa LpxC in vitro). Conditions: 5 nM LpxC; substrate UDP-3-O—(R-3-hydroxydecanoyl)-GlcNAc; 25 °C, 120 minutes; fluorescamine readout.
T1 construct: purchased Signalway Antibody AP74647-2
T1 sequence (P47205 1-303): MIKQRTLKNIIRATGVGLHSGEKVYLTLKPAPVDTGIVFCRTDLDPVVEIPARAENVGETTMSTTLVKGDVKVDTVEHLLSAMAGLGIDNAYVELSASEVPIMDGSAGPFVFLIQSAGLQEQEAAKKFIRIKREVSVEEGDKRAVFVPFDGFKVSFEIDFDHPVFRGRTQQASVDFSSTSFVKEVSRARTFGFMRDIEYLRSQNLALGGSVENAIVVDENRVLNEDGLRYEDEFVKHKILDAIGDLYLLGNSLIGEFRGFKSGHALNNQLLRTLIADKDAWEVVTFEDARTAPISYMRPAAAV
Format: biochemical
Protocol: The following method was used to determine degrees of inhibition of the compounds of the present invention on the enzymatic activity of recombinant Pseudomonas aeruginosa LpxC in vitro.
The test process was briefly described as follows: the tested compound was first dissolved in DMSO to prepare a 10 mM storage solution. The reaction was carried out in a 96-well microplate. Firstly, 20 μL of recombinant Pseudomonas aeruginosa LpxC (purchased from Signalway Antibody, article number AP74647-2) was added into the wells, and the final concentrations were 5 nM respectively. 5 μL of the compound to be tested was added, diluted in 4-fold, with 8 concentration points, and the concentration range was 0.61-10000 nM. 5 μL of LpxC substrate UDP-3-O—(R-3-hydroxydecanoyl)-GlcNAc (purchased from Biosynth Carbosynth, article number mu75071) was added, wherein a final concentration of the substrate was […], and the substrate was incubated at 25 °C for 120 minutes. Subsequently, 20 μL of 2.0 mg/mL fluorescamine (purchased from sigma aldrich, article number F9015, wherein a solvent was dimethylformamide/acetonitrile (1:1)) was added to the reaction system, mixed evenly and reacted for 10 minutes. Finally, 50 μL of 200 mM sodium phosphate buffer solution (pH 8.0) was added to stop the reaction, and a microplate reader (BMG) was used for reading. An excitation wavelength and an emission wavelength were 390 nm and 495 nm respectively. Compared with the fluorescence intensity ratio of a control group (0.1% DMSO), the percentage inhibition rates of the compounds at each concentration were calculated, and the IC50 values of the compounds were obtained by performing nonlinear regression analysis with logarithmic value of the compound concentration-inhibition rate by GraphPad Prism 5 software, which can be seen in Table 1.

Row | SMILES | IC50
5 | C[C@H](O)c1nccn1Cc1cc(-c2ccc(C#CC3CC4(CCN(C(=O)CN)CC4)C3)cc2)on1 [Example 16, (S)-2-amino-1-(2-((4-(3-((2-(1-hydroxyethyl)-1H-imidazol-1-yl)methyl)isoxazol-5-yl)phenyl)ethynyl)-7-azaspiro[3.5]nonan-7-yl)ethan-1-one] | 10.3 nM
6 | C[C@H](O)c1nccn1Cc1cc(-c2ccc(C#CC3CC4(CCN(C5CNC5)CC4)C3)cc2)on1 [Example 30, (S)-1-(1-((5-(4-((7-(azetidin-3-yl)-7-azaspiro[3.5]nonan-2-yl)ethynyl)phenyl)isoxazol-3-yl)methyl)-1H-imidazol-2-yl)ethan-1-ol] | 16.2 nM
7 | C[C@H](O)c1nccn1Cc1cc(-c2ccc(C#CC3CC4(CCN(CCC(=O)O)CC4)C3)cc2)on1 [Example 5, (S)-3-(2-((4-(3-((2-(1-hydroxyethyl)-1H-imidazol-1-yl)methyl)isoxazol-5-yl)phenyl)ethynyl)-7-azaspiro[3.5]nonan-7-yl)propanoic acid] | 7.03 nM
8 | C[C@H](O)c1nccn1Cc1cc(-c2ccc(C#CC3CC4(CCNCC4)C3)cc2)on1 [Example 1, (S)-1-(1-((5-(4-((7-azaspiro[3.5]nonan-2-yl)ethynyl)phenyl)isoxazol-3-yl)methyl)-1H-imidazol-2-yl)ethan-1-ol] | 9.46 nM
9 | C[C@H](O)c1nccn1Cc1cc(-c2ccc(C#CC3CC4(CCN(C(=O)CO)C4)C3)cc2)on1 (stereo partly drawn) [Example 28, (S)-2-hydroxy-1-(2-((4-(3-((2-(1-hydroxyethyl)-1H-imidazol-1-yl)methyl)isoxazol-5-yl)phenyl)ethynyl)-6-azaspiro[3.4]octan-6-yl)ethan-1-one] | 14.1 nM
10 | C[C@H](O)c1nccn1Cc1cc(-c2ccc(C#CC3CC4(C3)CN(C(=O)NCCO)C4)cc2)on1 [Example 50, (S)-N-(2-hydroxyethyl)-6-((4-(3-((2-(1-hydroxyethyl)-1H-imidazol-1-yl)methyl)isoxazol-5-yl)phenyl)ethynyl)-2-azaspiro[3.3]heptane-2-carboxamide] | 23.5 nM
11 | C[C@H](O)c1nccn1Cc1cc(-c2ccc(C#CC3CC4(C3)CN(Cc3ncc[nH]3)C4)cc2)on1 [Example 46, (S)-1-(1-((5-(4-((2-((1H-imidazol-2-yl)methyl)-2-azaspiro[3.3]heptan-6-yl)ethynyl)phenyl)isoxazol-3-yl)methyl)-1H-imidazol-2-yl)ethan-1-ol] | 21.5 nM
12 | C[C@H](O)c1nccn1Cc1cc(-c2ccc(C#CC3CC4(CCN(CCC(N)=O)CC4)C3)cc2)on1 [Example 9, (S)-3-(2-((4-(3-((2-(1-hydroxyethyl)-1H-imidazol-1-yl)methyl)isoxazol-5-yl)phenyl)ethynyl)-7-azaspiro[3.5]nonan-7-yl)propanamide] | 18.8 nM
13 | C[C@H](O)c1nccn1Cc1cc(-c2ccc(C#CC3CC4(CCN(C(=O)CC(=O)O)CC4)C3)cc2)on1 [Example 14, (S)-3-(2-((4-(3-((2-(1-hydroxyethyl)-1H-imidazol-1-yl)methyl)isoxazol-5-yl)phenyl)ethynyl)-7-azaspiro[3.5]nonan-7-yl)-3-oxopropanoic acid] | 6.81 nM
14 | C[C@H](O)c1nccn1Cc1cc(-c2ccc(C#CC3CC4(CCN(C(=O)CC(N)=O)CC4)C3)cc2)on1 [Example 15, (S)-3-(2-((4-(3-((2-(1-hydroxyethyl)-1H-imidazol-1-yl)methyl)isoxazol-5-yl)phenyl)ethynyl)-7-azaspiro[3.5]nonan-7-yl)-3-oxopropanamide] | 4.42 nM
15 | C[C@H](O)c1nccn1Cc1cc(-c2ccc(C#CC3CC4(C3)CN(C(=O)CC#N)C4)cc2)on1 [Example 32, (S)-3-(6-((4-(3-((2-(1-hydroxyethyl)-1H-imidazol-1-yl)methyl)isoxazol-5-yl)phenyl)ethynyl)-2-azaspiro[3.3]heptan-2-yl)-3-oxopropanenitrile] | 22.5 nM
16 | C[C@H](O)c1nccn1Cc1cc(-c2ccc(C#CC3CC4(CCN(CCO)CC4)C3)cc2)on1 [Example 11, (S)-2-(2-((4-(3-((2-(1-hydroxyethyl)-1H-imidazol-1-yl)methyl)isoxazol-5-yl)phenyl)ethynyl)-7-azaspiro[3.5]nonan-7-yl)ethan-1-ol] | 8.66 nM
17 | C[C@H](O)c1nccn1Cc1cc(-c2ccc(C#CC3CC4(C3)CN(C(=O)N3CCC(O)CC3)C4)cc2)on1 [Example 51, (S)-(6-((4-(3-((2-(1-hydroxyethyl)-1H-imidazol-1-yl)methyl)isoxazol-5-yl)phenyl)ethynyl)-2-azaspiro[3.3]heptan-2-yl)(4-hydroxypiperidin-1-yl)methanone] | 15.1 nM
18 | C[C@H](O)c1nccn1Cc1cc(-c2ccc(C#CC3CC4(CCN(CCCC(=O)O)C4)C3)cc2)on1 (stereo partly drawn) [Example 4, (S)-4-(2-((4-(3-((2-(1-hydroxyethyl)-1H-imidazol-1-yl)methyl)isoxazol-5-yl)phenyl)ethynyl)-6-azaspiro[3.4]octan-6-yl)butanoic acid] | 23.4 nM
19 | C[C@H](O)c1nccn1Cc1cc(-c2ccc(C#CC3CC4(CCN(C(=O)[C@@H](N)CO)CC4)C3)cc2)on1 [Example 18, (S)-2-amino-3-hydroxy-1-(2-((4-(3-((2-((S)-1-hydroxyethyl)-1H-imidazol-1-yl)methyl)isoxazol-5-yl)phenyl)ethynyl)-7-azaspiro[3.5]nonan-7-yl)propan-1-one] | 4.42 nM
20 | C[C@H](O)c1nccn1Cc1cc(-c2ccc(C#CC3CC4(C3)CN(C(=O)C3CCNC(=O)C3)C4)cc2)on1 (stereo partly drawn) [Example 54, 4-(6-((4-(3-((2-((S)-1-hydroxyethyl)-1H-imidazol-1-yl)methyl)isoxazol-5-yl)phenyl)ethynyl)-2-azaspiro[3.3]heptane-2-carbonyl)piperidin-2-one] | 15.5 nM
21 | C[C@H](O)c1nccn1Cc1cc(-c2ccc(C#CC3CC4(CCN(C(N)=O)C4)C3)cc2)on1 (stereo partly drawn) [Example 24, (S)-2-((4-(3-((2-(1-hydroxyethyl)-1H-imidazol-1-yl)methyl)isoxazol-5-yl)phenyl)ethynyl)-6-azaspiro[3.4]octane-6-carboxamide] | 6.9 nM
22 | C[C@H](O)c1nccn1Cc1cc(-c2ccc(C#CC3CC4(CCN(CC(=O)O)CC4)C3)cc2)on1 [Example 10, (S)-2-(2-((4-(3-((2-(1-hydroxyethyl)-1H-imidazol-1-yl)methyl)isoxazol-5-yl)phenyl)ethynyl)-7-azaspiro[3.5]nonan-7-yl)acetic acid] | 22.8 nM
23 | C[C@H](O)c1nccn1Cc1cc(-c2ccc(C#CC3CC4(CCN(CCCC(N)=O)CC4)C3)cc2)on1 [Example 8, (S)-4-(2-((4-(3-((2-(1-hydroxyethyl)-1H-imidazol-1-yl)methyl)isoxazol-5-yl)phenyl)ethynyl)-7-azaspiro[3.5]nonan-7-yl)butanamide] | 19.3 nM
